Source: patent US20200030278A1, “PHARMACEUTICAL COMPOSITIONS OF METAP-2 INHIBITORS” (Zafgen, Inc., priority 2017, published 2020)
Where two headings read alike, the source gives them in different places.

What was measured:
[1] = logD7.4 (physicochemical properties); details: pH 7.4
[2] = pKa (physicochemical properties)
Solubility (pH 7) = format: physicochemical; details: pH 7, aqueous buffer
[3] = Pharmacokinetics after intravenous administration in rats; details: in vivo, Rat, IV Bolus, 1 mg/kg
Experimental: (§1) Animal experiments were performed in accordance with the Guide for the Care and Use of Laboratory Animals as adopted and promulgated by the U.S. National Institutes of Health or local equivalent and were approved by the Institution's Animal Care and Use Committee or local equivalent. Unless described otherwise, animals (mouse, rat, and dog studies) were maintained under standard conditions (12-hour light/dark cycle and approximately 21±4° C. and 55±15% relative humidity), and food (Rodent pellet chow [Research Diets, Brunswick N.J., or similar] or canine pellet [Certified Dog Diet 2021C, Harlan Teklad Diets, Madison, Wis.] or canned [i.e., Cesar® Mars Petcare, Victoria, Australia]) and water were available ad libitum. Unless described otherwise, drug formulations were administered s.c. daily (efficacy studies) or every 3 days (Q3D; safety studies).

[4] = Pharmacokinetics after intravenous administration in dogs; details: in vivo, Dog, IV Bolus, 1 mg/kg
Experimental: as §1

[5] = Pharmacokinetics after subcutaneous administration in humans; format: in vivo, Human
Source text: (§2) Assessment of differences in pharmacokinetics following subcutaneous administration reflect both differences in the pharmacokinetic properties of the compounds and differences in pharmaceutical factors that affect absorption of the formulations from the injection sites.

[6] = Pharmacokinetics after subcutaneous administration in rats; format: in vivo; details: plasma; Rat, SC, 6 mg/kg
Experimental: as §1, §2

[7] = Pharmacokinetics after subcutaneous administration in dogs; format: in vivo; details: plasma; Dog, SC, 1 mg/kg
Experimental: as §1, §2

[8] = Pharmacokinetics after subcutaneous administration in rabbits; format: in vivo, Rabbit
Source text: as §2

[9] = Protein binding in rat plasma (dialysis); format: in vitro ADME; details: Rat Plasma, read-out: % Bound (converted)
plasma proteins [10] = assay: Protein binding in rat plasma (dialysis); format: in vitro ADME; details: plasma; rat, summary over concentrations; read-out: bound to plasma proteins
[11] = Protein binding in dog plasma (dialysis); format: in vitro ADME; details: Dog Plasma, read-out: % Bound (converted)
plasma proteins [12] = assay: Protein binding in dog plasma (dialysis); format: in vitro ADME; details: plasma; dog, summary over concentrations; read-out: bound to plasma proteins
[13] = Protein binding in mouse plasma (dialysis); format: in vitro ADME; details: read-out: % Bound (converted)
[14] = Protein binding in human plasma (dialysis); format: in vitro ADME; details: Human Plasma, read-out: % Bound (converted)
plasma proteins [15] = assay: Plasma protein binding, summary over species; format: in vitro ADME; details: species not specified
[16] = Duration of plasma exposure after subcutaneous dosing, summary over species; format: in vivo, rat, dog, rabbit, human
[17] = Toxicology study in the rat, s.c. Q3D for 28 days; format: in vivo, Sprague Dawley rats; details: for NOAEL at 28 days / AUC(0-t) / Cmax: Sprague Dawley; for AUC(0-t) / Cmax: 6 mg/kg, NOAEL 6 mg/kg; for AUC(0-t): read-out: AUC0-t at NOAEL
Experimental: Male and female Sprague Dawley rats 9-10 weeks of age (Envigo RMS, Inc., Indianapolis, Ind. or Orient Bio Inc., Gyeonggi-do, South Korea) were individually housed at the testing facility. […] Animals were allocated to treatment groups based on body weight, and body weight and food consumption were recorded weekly. […] At necropsy, macroscopic pathologic findings were recorded, sperm motility and morphology were determined, selected organs were weighed, and selected tissues were collected for microscopic examination.

[18] = Hepatocyte incubation, metabolic profile, rat; format: in vitro ADME
[19] = Hepatocyte incubation, metabolic profile, dog; format: in vitro ADME
[20] = Hepatocyte incubation, metabolic profile, human; format: in vitro ADME
[21] = Pharmacokinetic study in dogs, single s.c. injection (Example 3); details: both, beagle, dog, plasma, sc, 0.6 mg/kg
Experimental: Male and female beagle dogs of 9 to 11 months of age for PK characterization were individually housed at the testing facility Approximately 325 g of pelleted food was provided daily. […] Animals were observed twice daily for signs of ill health, morbidity, mortality, injury, and viability, and detailed clinical observations were conducted daily (including urine/fecal examination and hands-on examination). Food was weighed daily, and body weights were recorded at least weekly.
Samples were collected in tubes containing lithium heparin and processed for plasma by centrifugation (10 minutes at 3000 rpm). Supernatant was removed and stored frozen (−70° C.) until processed (BASi, West Lafayette, Ind.). Plasma drug concentration data were used to calculate PK parameters for individual concentration data using noncompartmental PK methods in Watson™ version 7.3.0.01 (Thermo Fisher Scientific, Inc., Waltham, Mass.).

[22] = female, rat, in vivo, sc, Day 1, female rats
[23] = female, rat, in vivo, sc, Day 28, female rats
[24] = male, rat, in vivo, sc, Day 28, male rats

CO[C@@H]1[C@H](OC(=O)N2CC(CCN3CCOCC3)C2)CC[C@]2(CO2)[C@H]1[C@@]1(C)O[C@@H]1CC=C(C)C [Compound A]
logD7.4 [1]: 2.28 | pKa [2]: 7.17 | solubility (Solubility (pH 7)): > 100 mg/mL | clearance ([3]; kel and dependent parameters estimated using two time points): 252 mL/min/kg | half-life ([3]; kel and dependent parameters estimated using two time points (1 and 2 hours)): 93 ± 62.4 min | Vd ([3]; kel and dependent parameters estimated using two time points, read-out: Vdss): 2.11 ± 0.1 L/kg | clearance [4]: 45.3 mL/min/kg | half-life [4]: 39.7 ± 6.06 min | Vd ([4]; read-out: Vdss): 1.48 ± 0.17 L/kg | Cmax ([5]; Human, SC, 2.4 mg): 13.5 ± 2.7 ng/mL | Tmax ([5]; Human, SC, 2.4 mg): 15 ± 0 min | kel ([5]; Human, SC, 2.4 mg): 1.09 ± 0.34 h⁻¹ | Vdss ([5]; Human, SC, 2.4 mg, estimated from subcutaneous dosing): 3.78 ± 1.54 L/kg | plasma concentration at 8 hours after dosing ([5]; humans, 2.4 mg subcutaneous dose): not quantifiable | AUC(0-inf) ([5]; plasma, Human, SC, 2.4 mg): 8.05 ± 1.42 ng·h/mL | half-life ([5]; plasma, Human, SC, 2.4 mg): 40.9 ± 11.9 min | AUC(0-t) [6]: 391 ± 54 ng·h/mL | Cmax [6]: 323 ± 26 ng/mL | Tmax [6]: 17.5 ± 5.04 min | AUC(0-t) [7]: 348 ± 42 ng·h/mL | Cmax [7]: 122 ± 29 ng/mL | Tmax [7]: 55 ± 10 min | half-life [7]: 62.4 ± 18 min | AUC(0-t) ([8]; plasma, Rabbit, SC, 1 mg/kg): 207 ± 45 ng·h/mL | Cmax ([8]; plasma, Rabbit, SC, 1 mg/kg): 173 ± 34 ng/mL | Tmax ([8]; plasma, Rabbit, SC, 1 mg/kg): 19.8 ± 8.4 min | half-life ([8]; plasma, Rabbit, SC, 1 mg/kg): 36.9 ± 10.1 min | time after dosing at which plasma concentrations were below the lower limit of quantification ([8]; rabbit, subcutaneous, last sampling time 8 hours): ≤ 4 h | fraction unbound at 4 h, 5 nM ([9]; intended 5 nM, actual 3.64 nM at end of 4-hour dialysis): 0.323 | fraction unbound at 4 h, 10 nM ([9]; intended 10 nM, actual 7.60 nM): 0.29 | fraction unbound at 4 h, 50 nM ([9]; intended 50 nM, actual 39.7 nM): 0.426 | fraction unbound at 4 h, 100 nM ([9]; intended 100 nM, actual 76.0 nM): 0.466 | fraction unbound at 4 h, 500 nM ([9]; intended 500 nM, actual 370 nM): 0.451 | fraction unbound at 4 h, 1000 nM ([9]; intended 1000 nM, actual 595 nM): 0.566 | fraction unbound at 4 h (plasma proteins [10]): 0.3 to 0.6 | fraction unbound at 4 h, 5 nM ([11]; intended 5 nM, actual 3.17 nM at end of 4-hour dialysis): 0.311 | fraction unbound at 4 h, 10 nM ([11]; intended 10 nM, actual 6.05 nM): 0.406 | fraction unbound at 4 h, 50 nM ([11]; intended 50 nM, actual 32.0 nM): 0.326 | fraction unbound at 4 h, 100 nM ([11]; intended 100 nM, actual 59.1 nM): 0.403 | fraction unbound at 4 h, 500 nM ([11]; intended 500 nM, actual 320 nM): 0.457 | fraction unbound at 4 h, 1000 nM ([11]; intended 1000 nM, actual 527 nM): 0.469 | fraction unbound at 4 h (plasma proteins [12]): 0.3 to 0.6 | fraction unbound at 4 h, 5 nM ([13]; intended 5 nM, actual 5.20 nM at end of 4-hour dialysis): 0.298 | fraction unbound at 4 h, 10 nM ([13]; intended 10 nM, actual 11.1 nM): 0.293 | fraction unbound at 4 h, 50 nM ([13]; intended 50 nM, actual 56.4 nM): 0.302 | fraction unbound at 4 h, 100 nM ([13]; intended 100 nM, actual 112 nM): 0.333 | fraction unbound at 4 h, 500 nM ([13]; intended 500 nM, actual 496 nM): 0.377 | fraction unbound at 4 h, 1000 nM ([13]; intended 1000 nM, actual 868 nM): 0.46 | fraction unbound at 4 h, 5 nM ([14]; intended 5 nM, actual 1.49 nM at end of 4-hour dialysis): 0.664 | fraction unbound at 4 h, 10 nM ([14]; intended 10 nM, actual 3.14 nM): 0.681 | fraction unbound at 4 h, 50 nM ([14]; intended 50 nM, actual 15.5 nM): 0.688 | fraction unbound at 4 h, 100 nM ([14]; intended 100 nM, actual 32.7 nM): 0.694 | fraction unbound at 4 h, 500 nM ([14]; intended 500 nM, actual 165 nM): 0.704 | fraction unbound at 4 h, 1000 nM ([14]; intended 1000 nM, actual 338 nM): 0.748 | fraction bound to plasma proteins (plasma proteins [15]): 0.3 to 0.7 | time for concentrations in plasma to return to baseline ([16]; all species): ≤ 8 h | interval between doses with plasma concentrations at background / minimal exposure ([16]; dosing once every 3 days in animals and twice a week in humans): approximately 54 hours | NOAEL at 28 days ([17]; rat, in vivo, sc, female rats, s.c. Q3D, 4 weeks, read-out: NOAEL (F)): 6 mg/kg | NOAEL at 28 days ([17]; rat, in vivo, sc, male rats, s.c. Q3D, 4 weeks, read-out: NOAEL): 6 mg/kg | AUC(0-t) ([17]; both sexes, rat, in vivo, sc, Day 1, male rats): 349 ng·h/mL | Cmax [17, 22]: 278 ng/mL | AUC(0-t) [17, 22]: 262 ng·h/mL | Cmax [17, 23]: 412 ng/mL | AUC(0-t) [17, 23]: 288 ng·h/mL | Cmax ([17]; male, rat, in vivo, sc, Day 1, male rats): 351 ng/mL | Cmax [17, 24]: 426 ng/mL | AUC(0-t) [17, 24]: 409 ng·h/mL | tolerability of the highest dose ([17]; rat, in vivo, sc, 25 mg/kg): well tolerated | Mortality/early euthanasia ([17]; rats, s.c. Q3D, 4 weeks): no mortality and None | metabolic profile / predominant pathway in hepatocytes [18]: higher amount of GSH-metabolism than for dog and human hepatocytes | metabolic profile / predominant pathway in hepatocytes [19]: oxidative (CYP-mediated) metabolism being predominant | metabolic profile / predominant pathway in hepatocytes [20]: oxidative (CYP-mediated) metabolism being predominant | half-life [21]: 24 min
